# Source: patent US12396459B2, “Synergistically effective herbicide composition comprising pyridate and at least one defined 4-HPPD inhibitor” (BELCHIM CROP PROTECTION NV, priority 2018, dated 2025)
# Experiments:
# Type in all cases: in vivo
# [1] = test system: Cirsium arvense; experiment: Field trial post-emergence in maize: CIRAR; settings: # = 1, g a.c./ha: PYR 300, MES 100, PYR + MES 300 + 90
# Experimental: (§1) Herbicidal activity of herbicide compositions according to the first aspect of the present invention with regard to different types of unwanted vegetation was determined during trials performed on test fields (field trials). Individual compositions comprising pyridate and individual compositions comprising a defined 4-HPPD inhibitor are compared with a herbicide composition according to the invention comprising both pyridate and a defined 4-HPPD inhibitor. The expected activity of the combination of the active compounds pyridate and a defined 4-HPPD inhibitor is calculated according to above mentioned calculation method by Colby, in order to evaluate a synergistic effect between pyridate and a defined 4-HPPD inhibitor.
# (§2) Herbicidal activity was determined by applying herbicide compositions on emerged unwanted vegetation on fields where maize was cultivated. Pyridate and a defined 4-HPPD inhibitor were applied as a tank mixture by mixing these active compounds prior to use in a spray tank. The corresponding mixture was in the form of a spray liquor. Besides, spray liquors of individual compositions comprising pyridate and of individual compositions comprising a defined 4-HPPD inhibitor were used. Test plants of unwanted vegetation with a growth stage corresponding to BBCH 10-18 (according to the extended BBCH-scale) were sprayed with the active compound preparations such that particular desired amounts of active compounds are applied per unit area. Spray liquor was diluted with water to arrive at an application volume of 50 to 450 L/ha. At a specified number of days after application (DAA), the degree of damage to the unwanted vegetation is rated in % of plants of unwanted vegetation that were killed, which was assessed by visually controlling the plants.
# [2] = test system: Digitaria sanguinalis; experiment: Field trial post-emergence in maize: DIGSA; settings: g a.c./ha: PYR 300, MES 100, PYR + MES 300 + 90
# Experimental: as §1, §2
# [3] = test system: Galinsoga parviflora; experiment: Field trial post-emergence in maize: GASPA; settings: 31-48 DAA; # = 3; g a.c./ha: PYR 300, MES 100, PYR + MES 300 + 90
# Experimental: as §1
# (§3) Herbicidal activity was determined by applying herbicide compositions on emerged unwanted vegetation on fields where maize was cultivated. Pyridate and a defined 4-HPPD inhibitor were applied as a tank mixture by mixing these active compounds prior to use in a spray tank. The corresponding mixture was in the form of a spray liquor. […] At a specified number of days after application (DAA), the degree of damage to the unwanted vegetation is rated in % of plants of unwanted vegetation that were killed, which was assessed by visually controlling the plants.
# [4] = test system: Geranium sp.; experiment: Field trial post-emergence in maize: GERSS; settings: # = 1, g a.c./ha: PYR 300, MES 100, PYR + MES 300 + 90
# Experimental: as §1, §2
# [5] = test system: Poa annua; experiment: Field trial post-emergence in maize: POAAN; settings: for herbicidal effect (h.e.): g a.c./ha: PYR 300, MES 100, PYR + MES 300 + 90
# Experimental: as §1, §2
# [6] = test system: Fallopia convolvulus; experiment: Field trial post-emergence in maize: POLCO
# Experimental: as §1, §2
# [7] = test system: Solanum nigrum; experiment: Field trial post-emergence in maize: SOLNI; settings: for herbicidal effect (h.e.): g a.c./ha: PYR 300, MES 100, PYR + MES 300 + 90
# Experimental: as §1, §2
# [8] = test system: Stachys arvensis; experiment: Field trial post-emergence in maize: STAAR; settings: 7-14 DAA; # = 1; g a.c./ha: PYR 300, MES 100, PYR + MES 300 + 90
# Experimental: as §1, §3
# [9] = test system: Thlaspi arvense; experiment: Field trial post-emergence in maize: THLAR; settings: # = 1, g a.c./ha: PYR 300, MES 100, PYR + MES 300 + 90
# Experimental: as §1, §2
# [10] = test system: Geranium dissectum; experiment: Examples 6-8 herbicidal effect: GERDI; settings: 7 DAA
# [11] = test system: Poa annua; experiment: Examples 6-8 herbicidal effect: POAAN; settings: 7 DAA
# [12] = test system: Digitaria sanguinalis; experiment: Examples 6-8 herbicidal effect: DIGSA; settings: 7 DAA
# [13] = test system: unwanted vegetation (UVEG); experiment: Field trials Examples 1-5 (incl. Table 1), post-emergence on unwanted vegetation in maize; settings: 14-20 DAA
# Experimental: as §1, §2
# [14] = test system: Galium aparine; experiment: Field trial post-emergence in maize: GALAP
# Experimental: as §1, §2
# (§4) Example 1 concerns a herbicide composition comprising a combination of pyridate and mesotrione, which was applied post-emergence on unwanted vegetation on a field where maize was cultivated, according to the test conditions mentioned above.
# [15] = test system: Kickxia elatine; experiment: Field trial post-emergence in maize: KICEL
# Experimental: as §1, §2, §4
# [16] = test system: Lamium purpureum; experiment: Field trial post-emergence in maize: LAMPU
# Experimental: as §1, §2, §4
# [17] = test system: Mercurialis annua; experiment: Field trial post-emergence in maize: MERAN
# Experimental: as §1, §2, §4
# [18] = test system: Viola arvensis; experiment: Field trial post-emergence in maize: VIOAR
# Experimental: as §1, §2, §4
# [19] = g a.c./ha: MES 50, PYR + SMO 300 + 800
# [20] = g a.c./ha: MES 80, PYR + MES 300 + 50
smiles,measurement,setting,value
"CS(=O)(=O)c1ccc(C(=O)C2C(=O)CCCC2=O)c([N+](=O)[O-])c1 [MES, 2-(4-methylsulfonyl-2-nitrobenzoyl) cyclohexane-1,3-dione]",herbicidal effect (h.e.),[1]; 7-14 DAA,58%
same,herbicidal effect (h.e.),[1]; 31-48 DAA,78%
same,herbicidal effect (h.e.),"[2]; 7-14 DAA, # = 2",53%
same,herbicidal effect (h.e.),"[2]; 18-28 DAA, # = 2",47%
same,herbicidal effect (h.e.),"[2]; 31-48 DAA, # = 1",54%
same,herbicidal effect (h.e.),[3],97%
same,herbicidal effect (h.e.),[4]; 7-14 DAA,44%
same,herbicidal effect (h.e.),[4]; 18-28 DAA,41%
same,herbicidal effect (h.e.),[4]; 31-48 DAA,31%
same,herbicidal effect (h.e.),"[5]; 7-14 DAA, # = 2",39%
same,herbicidal effect (h.e.),"[5]; 18-28 DAA, # = 3",36%
same,herbicidal effect (h.e.),"[5]; 31-48 DAA, # = 2",27%
same,MES h.e.,[5]; POAAN 14-20 DAA 45 g a.c./ha,24%
same,MES h.e.,[5]; POAAN 14-20 DAA 90 g a.c./ha,48%
same,MES h.e.,[5]; POAAN 14-20 DAA 135 g a.c./ha,58%
same,MES h.e.,[5]; POAAN 24-31 DAA 45 g a.c./ha,17%
same,MES h.e.,[5]; POAAN 24-31 DAA 90 g a.c./ha,22%
same,MES h.e.,[5]; POAAN 24-31 DAA 135 g a.c./ha,38%
same,herbicidal effect (h.e.),"[6]; 7-14 DAA, # = 5, g a.c./ha: PYR 300, MES 100, PYR + MES 300 + 90",68%
same,herbicidal effect (h.e.),"[6]; 13-14 DAA, # = 1, g a.c./ha: PYR 450, MES 144, PYR + MES 450 + 144",92%
same,herbicidal effect (h.e.),"[6]; 18-28 DAA, # = 8, g a.c./ha: PYR 300, MES 100, PYR + MES 300 + 90",77%
same,herbicidal effect (h.e.),"[6]; 31-48 DAA, # = 8, g a.c./ha: PYR 300, MES 100, PYR + MES 300 + 90",68%
same,MES h.e.,[6]; POLCO 14-20 DAA 45 g a.c./ha,77%
same,MES h.e.,[6]; POLCO 14-20 DAA 90 g a.c./ha,89%
same,MES h.e.,[6]; POLCO 24-31 DAA 45 g a.c./ha,80%
same,MES h.e.,[6]; POLCO 24-31 DAA 135 g a.c./ha,97%
same,herbicidal effect (h.e.),"[7]; 18-28 DAA, # = 7",91%
same,herbicidal effect (h.e.),"[7]; 31-48 DAA, # = 6",93%
same,MES h.e.,[7]; SOLNI 14-20 DAA 45 g a.c./ha,95%
same,herbicidal effect (h.e.),[8],54%
same,herbicidal effect (h.e.),[9]; 7-14 DAA,76%
same,herbicidal effect (h.e.),[9]; 18-28 DAA,97%
same,herbicidal effect (h.e.),[10]; [19],15%
same,herbicidal effect (h.e.),[10]; [20],15%
same,herbicidal effect (h.e.),[11]; [19],0%
same,herbicidal effect (h.e.),[11]; [20],3%
same,herbicidal effect (h.e.),[12]; [19],95%
same,herbicidal effect (h.e.),[12]; [20],92%
same,MES h.e. (%),"[13]; VIOAR (Viola arvensis), # = 3, first VIOAR block (r259-264), MES 135 g a.c./ha",98%
same,MES h.e. (%),"[13]; VIOAR, # = 3, second VIOAR block (r265-272), MES 45 g a.c./ha",70%
same,MES h.e. (%),"[13]; VIOAR, # = 3, second VIOAR block (r265-272), MES 90 g a.c./ha",84%
same,MES h.e. (%),"[13]; VIOAR, # = 3, second VIOAR block (r265-272), MES 135 g a.c./ha",87%
same,MES h.e.,[14]; GALAP 14-20 DAA 45 g a.c./ha,30%
same,MES h.e.,[14]; GALAP 14-20 DAA 90 g a.c./ha,80%
same,MES h.e.,[14]; GALAP 14-20 DAA 135 g a.c./ha,92%
same,MES h.e.,[14]; GALAP 24-31 DAA 45 g a.c./ha,40%
same,MES h.e.,[14]; GALAP 24-31 DAA 90 g a.c./ha,90%
same,MES h.e.,[14]; GALAP 24-31 DAA 135 g a.c./ha,91%
same,MES h.e.,[15]; KICEL 14-20 DAA 45 g a.c./ha,0%
same,MES h.e.,[15]; KICEL 14-20 DAA 90 g a.c./ha,8%
same,MES h.e.,[15]; KICEL 14-20 DAA 135 g a.c./ha,0%
same,MES h.e.,[15]; KICEL 24-31 DAA 45 g a.c./ha,0%
same,MES h.e.,[15]; KICEL 24-31 DAA 90 g a.c./ha,0%
same,MES h.e.,[15]; KICEL 24-31 DAA 135 g a.c./ha,0%
same,MES h.e.,[16]; LAMPU 14-20 DAA 45 g a.c./ha,93%
same,MES h.e.,[16]; LAMPU 14-20 DAA 90 g a.c./ha,98%
same,MES h.e.,[16]; LAMPU 14-20 DAA 135 g a.c./ha,99%
same,MES h.e.,[16]; LAMPU 24-31 DAA 45 g a.c./ha,89%
same,MES h.e.,[16]; LAMPU 24-31 DAA 90 g a.c./ha,95%
same,MES h.e.,[17]; MERAN 14-20 DAA 45 g a.c./ha,95%
same,MES h.e.,[17]; MERAN 24-31 DAA 45 g a.c./ha,70%
same,MES h.e.,[18]; VIOAR 14-20 DAA 45 g a.c./ha,84%
same,MES h.e.,[18]; VIOAR 14-20 DAA 90 g a.c./ha,95%
same,MES h.e.,[18]; VIOAR 14-20 DAA 135 g a.c./ha,98%
